From patent publication US20100216827A1 (Metabolex, Inc., priority 2008, published 2010) come the findings set out here.

The experiment deals with T1, human GPR120 (Homo sapiens, UniProt Q5NUL3).
T1 construct: host or cells: HEK293 cells coexpressing Gqi5
T1 sequence (Q5NUL3 1-361): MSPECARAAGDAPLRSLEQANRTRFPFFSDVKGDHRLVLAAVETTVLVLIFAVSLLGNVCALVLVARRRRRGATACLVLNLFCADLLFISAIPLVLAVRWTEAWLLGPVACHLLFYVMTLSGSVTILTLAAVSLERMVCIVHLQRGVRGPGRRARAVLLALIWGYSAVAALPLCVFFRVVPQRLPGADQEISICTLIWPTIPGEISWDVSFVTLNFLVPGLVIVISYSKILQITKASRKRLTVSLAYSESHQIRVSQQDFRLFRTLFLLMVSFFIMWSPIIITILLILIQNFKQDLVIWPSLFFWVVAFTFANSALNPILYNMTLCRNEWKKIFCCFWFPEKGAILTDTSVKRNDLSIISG
Description: Intracellular Ca2+ (FLIPR Calcium 4, Flexstation) assay in human GPR120 stable HEK293 cell line coexpressing Gqi5. The format is cell-based. Conditions: for % Activity at 5 μM: 5 μM compound compared to the maximal activity of GW9508 at 6.7 μM (100%); for EC50: human GPR120 stably expressing cells, 8 concentrations 0.00001 to 20 μM. In a few lines: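 Calcium 4 dye-loaded HEK293 cells expressing N-terminally Flag-tagged human GPR120 with Gqi5 (HBSS/20 mM HEPES, pH 7.4; 50 min, 37 °C). Fluorescence (485/525 nm) read for 90 s after addition of compound at 8 concentrations, 0.00001–20 μM; EC50 from Max−Min change. % activity at 5 μM versus maximal GW9508 response (6.7 μM).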

Where [1] appears, read: read-out: EC50 between >1 μM and ≦10 μM.

Like-named read-outs stand apart in the source and are kept apart here. Where only a bound is given, the exact number is not on record here.

For `Cc1cc(COc2ccc(CC(C)C(=O)O)cc2)n(-c2ccc(Cl)cc2)n1` (stereo not drawn) [Example 86, 3-(4-((1-(4-chlorophenyl)-3-methyl-1H-pyrazol-5-yl)methoxy)phenyl)-2-methylpropanoic acid], the “% Activity at 5 μM” value came out at 98%. Also, the EC50 (in general, the concentration giving half of the maximal effect) (read-out: EC50 ≦ 1 μM) is no more than 1 µM.

Regarding `Cc1cc(COc2c(F)cc(CC(C)C(=O)O)cc2F)n(-c2ccc(C)c(C)c2)n1` (stereo not drawn) [Example 87, 3-(4-((1-(3,4-dimethylphenyl)-3-methyl-1H-pyrazol-5-yl)methoxy)-3,5-difluorophenyl)-2-methylpropanoic acid], the “% Activity at 5 μM” value is recorded as 106%. The EC50 (read-out: EC50 ≦ 1 μM) is no more than 1 µM.

`Cc1cc(COc2c(F)cc(CC(C)C(=O)O)cc2F)n(-c2ccc(C)c(Cl)c2)n1` (stereo not drawn) [Example 88, 3-(4-((1-(3-chloro-4-methylphenyl)-3-methyl-1H-pyrazol-5-yl)methoxy)-3,5-difluorophenyl)-2-methylpropanoic acid]: the “% Activity at 5 μM” value turned out to be 107%. The EC50 (read-out: EC50 ≦ 1 μM) is no more than 1 µM.

As for `Cc1cc(COc2c(F)cc(CC(C)C(=O)O)cc2F)n(-c2cccc(Cl)c2)n1` (stereo not drawn) [Example 89, 3-(4-((1-(3-chlorophenyl)-3-methyl-1H-pyrazol-5-yl)methoxy)-3,5-difluorophenyl)-2-methylpropanoic acid], the “% Activity at 5 μM” value is recorded as 107%. Further, the EC50 (read-out: EC50 ≦ 1 μM) was no more than 1 µM.

In the case of `CCc1ccc(-n2nc(C)cc2COc2ccc(CC(C)C(=O)O)cc2F)cc1` (stereo not drawn) [Example 90, 3-(4-((1-(4-ethylphenyl)-3-methyl-1H-pyrazol-5-yl)methoxy)-3-fluorophenyl)-2-methylpropanoic acid], the “% Activity at 5 μM” value is reported as 99%. Further, where the note is “read-out: EC50 ≦ 1 μM”, the EC50 was no more than 1 µM.

For the compound `CC(Cc1cc(F)c(OCc2ccnn2-c2ccccc2)c(F)c1)C(=O)O` (stereo not drawn) [Example 91, 3-(3,5-difluoro-4-((1-phenyl-1H-pyrazol-5-yl)methoxy)phenyl)-2-methylpropanoic acid], the “% Activity at 5 μM” value worked out at 64%. Besides, the EC50 (read-out: EC50 ≦ 1 μM) is no more than 1 µM.

Regarding `Cc1cc(C)cc(-n2nc(C)cc2COc2c(F)cc(CC(C)C(=O)O)cc2F)c1` (stereo not drawn) [Example 92, 3-(4-((1-(3,5-dimethylphenyl)-3-methyl-1H-pyrazol-5-yl)methoxy)-3,5-difluorophenyl)-2-methylpropanoic acid], the “% Activity at 5 μM” value is on record as 58%. Further, the EC50 (read-out: EC50 ≦ 1 μM) was no more than 1 µM.

For the compound `CC(Cc1cc(F)c(OCc2ccnn2-c2ccc(Cl)cc2)c(F)c1)C(=O)O` (stereo not drawn) [Example 93, 3-(4-((1-(4-chlorophenyl)-1H-pyrazol-5-yl)methoxy)-3,5-difluorophenyl)-2-methylpropanoic acid], the “% Activity at 5 μM” value is 108%. Besides, the EC50 (read-out: EC50 ≦ 1 μM) was no more than 1 µM.

For `Cc1cc(COc2c(F)cc(CC(C)C(=O)O)cc2F)n(-c2ccc(Cl)c(C)c2)n1` (stereo not drawn) [Example 94, 3-(4-((1-(4-chloro-3-methylphenyl)-3-methyl-1H-pyrazol-5-yl)methoxy)-3,5-difluorophenyl)-2-methylpropanoic acid], the “% Activity at 5 μM” value worked out at 108%. For the same compound, for the setting “read-out: EC50 ≦ 1 μM”, the EC50 was no more than 1 µM.

Take `CCc1ccc(-n2nc(C)cc2COc2ccc(CC(C)C(=O)O)cc2C)cc1` (stereo not drawn) [Example 95, 3-(4-((1-(4-ethylphenyl)-3-methyl-1H-pyrazol-5-yl)methoxy)-3-methylphenyl)-2-methylpropanoic acid]: the “% Activity at 5 μM” value is recorded as 100%. Besides, where the note is “read-out: EC50 ≦ 1 μM”, the EC50 was no more than 1 µM.

As to `CCc1ccc(-n2nc(C(F)(F)F)cc2COc2c(F)cc(CC(C)C(=O)O)cc2F)cc1` (stereo not drawn) [Example 96, 3-(4-((1-(4-ethylphenyl)-3-(trifluoromethyl)-1H-pyrazol-5-yl)methoxy)-3,5-difluorophenyl)-2-methylpropanoic acid], the “% Activity at 5 μM” value amounted to 97%. Besides, under “read-out: EC50 ≦ 1 μM”, the EC50 is no more than 1 µM.

Take `Cc1cc(COc2c(F)cc(CC(C)C(=O)O)cc2F)n(-c2ccc(Br)cc2)n1` (stereo not drawn) [Example 97, 3-(4-((1-(4-bromophenyl)-3-methyl-1H-pyrazol-5-yl)methoxy)-3,5-difluorophenyl)-2-methylpropanoic acid]: the “% Activity at 5 μM” value is on record as 109%. The EC50 (read-out: EC50 ≦ 1 μM) is no more than 1 µM.

For `CCc1ccc(-n2nc(C)cc2COc2c(F)cc(C[C@@H](C)C(=O)O)cc2F)cc1` [Example 98, (R)-3-(4-((1-(4-ethylphenyl)-3-methyl-1H-pyrazol-5-yl)methoxy)-3,5-difluorophenyl)-2-methylpropanoic acid], the “% Activity at 5 μM” value is given as 104%. Further, under “read-out: EC50 ≦ 1 μM”, the EC50 is no more than 1 µM.

For the compound `CCc1ccc(-n2nc(C)cc2COc2c(F)cc(C[C@H](C)C(=O)O)cc2F)cc1` [Example 99, (S)-3-(4-((1-(4-ethylphenyl)-3-methyl-1H-pyrazol-5-yl)methoxy)-3,5-difluorophenyl)-2-methylpropanoic acid], the “% Activity at 5 μM” value was 73%. In addition, the EC50 (read-out: EC50 ≦ 1 μM) is no more than 1 µM.

In the case of `CCc1ccc(-n2nccc2COc2c(F)cc(CC(C)C(=O)O)cc2F)cc1` (stereo not drawn) [Example 100, 3-(4-((1-(4-ethylphenyl)-1H-pyrazol-5-yl)methoxy)-3,5-difluorophenyl)-2-methylpropanoic acid], the “% Activity at 5 μM” value was found to be 109%. Also, where the note is “read-out: EC50 ≦ 1 μM”, the EC50 was no more than 1 µM.

Regarding `CCc1cc(COc2c(F)cc(CC(C)C(=O)O)cc2F)n(-c2ccc(Cl)cc2)n1` (stereo not drawn) [Example 101, 3-(4-((1-(4-chlorophenyl)-3-ethyl-1H-pyrazol-5-yl)methoxy)-3,5-difluorophenyl)-2-methylpropanoic acid], the “% Activity at 5 μM” value was 113%. Besides, the EC50 (read-out: EC50 ≦ 1 μM) was no more than 1 µM.

For `CCOC(Cc1cc(F)c(OCc2cc(C)nn2-c2ccc(Cl)cc2)c(F)c1)C(=O)O` (stereo not drawn) [Example 102, 3-(4-((1-(4-chlorophenyl)-3-methyl-1H-pyrazol-5-yl)methoxy)-3,5-difluorophenyl)-2-ethoxypropanoic acid], the “% Activity at 5 μM” value worked out at 61%. Further, under setting [1], the EC50 was 1 to 10 µM.

With `COc1cc(OCc2cc(C)nn2-c2ccc(Cl)cc2)ccc1CC(C)C(=O)O` (stereo not drawn) [Example 103, 3-(4-((1-(4-Chlorophenyl)-3-methyl-1H-pyrazol-5-yl)methoxy)-2-methoxyphenyl)-2-methylpropanoic acid], the “% Activity at 5 μM” value is 78%. Further, the EC50 under setting [1] lay in the range of 1 to 10 µM.

`Cc1cc(COc2c(F)cc(CC(C)C(=O)O)cc2F)n(-c2ccc(C3CCCCC3)cc2)n1` (stereo not drawn) [Example 104, 3-(4-((1-(4-Cyclohexylphenyl)-3-methyl-1H-pyrazol-5-yl)methoxy)-3,5-difluorophenyl)-2-methylpropanoic acid]: the “% Activity at 5 μM” value is recorded as 27%. Besides, the EC50 (read-out: EC50 > 10 μM) is greater than 10 µM.

On to `CCCc1ccc(-n2nc(C)cc2COc2c(F)cc(CC(C)C(=O)O)cc2F)cc1` (stereo not drawn) [Example 105, 3-(3,5-Difluoro-4-((3-methyl-1-(4-propylphenyl)-1H-pyrazol-5-yl)methoxy)phenyl)-2-methylpropanoic acid], for which the “% Activity at 5 μM” value was found to be 99%. Where the note is “read-out: EC50 ≦ 1 μM”, the EC50 was no more than 1 µM.

Regarding `Cc1cc(COc2cc3c(cc2F)C(CC(=O)O)CC3)n(-c2ccc(Cl)cc2)n1` (stereo not drawn) [Example 106, 2-(5-((1-(4-Chlorophenyl)-3-methyl-1H-pyrazol-5-yl)methoxy)-6-fluoro-2,3-dihydro-1H-inden-1-yl)acetic acid], the “% Activity at 5 μM” value came out at 88%. Moreover, the 50% effective concentration (EC50) (read-out: EC50 ≦ 1 μM) was no more than 1 µM.
